Measured values: patent US10017453B2, “Pharmaceutically acceptable salts of fatty acids” (Dignity Sciences Limited, priority 2013, dated 2018)
≈ marks a conversion by molar mass, not a printed value.

Assays:
[1] = Storage stability up to 24 weeks, free acid versus lysine salt (FIG. 28); assay type: physicochemical
Description: The 15-HETrE-lysine salt is stable at 20° C. and 40% humidity as well as at 40° C. and 75% humidity, making the lysine salt useful for pharmaceutical applications. 15-HETrE lysine salt was prepared on a larger scale for the crystallization screen as a white powder.

[2] = Solvent-induced degradation of 15-(S)-HETrE lysine salt (ethyl acetate or methanol, overnight, UPLC); assay type: physicochemical
Description: An experiment to determine the degradation of 15-(S)-HETrE lysine salt, if any, when contacted with ethyl acetate or methanol. 15-(S)-HETrE lysine salt (100 mg) was dissolved in solvent (1 mL) and stirred overnight.

[3] = 8 Day Stability 40/75% RH of solids from the salt/cocrystal screen; assay type: physicochemical; settings: 8 days
[4] = Chemical stability at ambient temperature under vacuum for 8 days; assay type: physicochemical
Source text: Twenty four co-formers and acids were used to screen for stable forms of 15-HETrE but most yielded oils or gels. Salts with improved handling properties were isolated from the screen: sodium, ornithine, lysine, meglumine and piperazine, but all were poorly crystalline.
Properties of 15-HETrE salts prepared according to Examples 4-7 were compared against each other and against 15-HETrE free acid API.

[5] = Dynamic vapor sorption (DVS) analysis; assay type: physicochemical; settings: for Hygroscopicity according to the European Pharmacopeia classification: DVS
Source text: Post DVS XRPD analysis was not conducted as the material deliquesced.

[6] = Qualitative solubility observations of the salts; assay type: physicochemical
Description: An alternative method to prepare 15-HETrE sodium salt by slurrying and avoid need for rotary evaporation could not be found. […] Scale up and characterization was completed for 15-HETrE sodium salt using rotary evaporation from 10% aqueous EtOH, then EtOH. […] Purity as measured by UPLC analysis was ˜81%.
Products of each of the Reactions were white in appearance. Filtration was carried out with a sintered funnel (no. 3, 10 mm diameter) under mild vacuum. Some filter cake products were yellow in appearance. The first ˜200 μL of filtrate were transferred into an HPLC vial. Filtration of the remaining reaction mixture (alternating between high and medium vacuum) yielded a filter cake that was transferred to a vacuum chamber and dried overnight before being stored in a freezer.

[7] = Reslurry of 15-(S)-HETrE lysine salt in ethyl acetate (impurity profile, NMR ratio); assay type: physicochemical
Description: An experiment was conducted to determine if the ratio of 15-(S)-HETrE to lysine would change after exposure to ethyl acetate. 15-(S)-HETrE lysine salt (100 mg) was suspended in HPLC grade ethyl acetate (1 mL) and stirred vigorously overnight at room temperature. The suspension was then filtered as described in previous examples. The impurity profiles of the starting 15-(S)-HETrE lysine salt (“before slurry”) and the slurried, filtered salt (“after reslurry”) are shown in Table 25.
NMR spectroscopy confirmed no change in the ratio of 15-(S)-HETrE-to-lysine ratio.

[8] = ambient temperature; probably due to uptake of moisture
[9] = Solubility screen of as-received 15-HETrE (aliquot addition method); assay type: physicochemical; settings: for solubility: organic solvent or mixture, estimated, read-out: Solubility Range
Source text: This is believed to be due to degradation of 15-HETrE, therefore HFIPA was not used in any further studies of 15-HETrE.

[10] = Degradation of 15-(S)-HETrE on exposure to isopropyl acetate (overnight, UPLC); assay type: physicochemical
Description: An experiment was conducted to examine whether any degradation would be observed upon exposure of 15-(S)-HETrE to isopropyl acetate. 15-(S)-HETrE (100 mg) was dissolved in isopropyl acetate (1 mL) and stirred overnight. This was sampled directly for UPLC analysis (Table 39).

[11] = in ethyl acetate, stirred overnight
[12] = original salt, before solvent contact
[13] = after reslurry in ethyl acetate, overnight, room temperature
[14] = before exposure to isopropyl acetate
[15] = in isopropyl acetate, stirred overnight

In the case of `CCCCCC(O)/C=C/C=C\C/C=C\CCCCCCC(=O)O.NCCCC[C@H](N)C(=O)O` (stereo not shown) [15-HETrE lysine salt, 15-Hydroxy-eicosa-8(Z),11(Z),13(E)-trienoic acid lysine salt], the Storage stability ([1]; 20° C. and 40% humidity) is reported as “stable”, the Storage stability ([1]; 40° C. and 75% humidity) is reported as “stable” and the “HETrE (RRT 1) peak area” value [2, 11] is reported as 94.20%. The “IMP 1 (RRT 0.62) peak area” value [2, 11] was 0.05%, the “IMP 2 (RRT 0.64) peak area” value [2, 11] was 0.86% and the “IMP 3 (RRT 0.69) peak area” value [2, 11] was 0.96%. For the same compound, the “IMP 4 (RRT 0.91) peak area” value [2, 11] was 1.30%, the “IMP 5 (RRT 1.03) peak area” value [2, 11] was 0.29% and the “IMP 6 (RRT 1.1) peak area” value [2, 11] was 1.35%. For the same compound, the “IMP 7 (RRT 1.75) peak area” value [2, 11] was 0.14%, the “HETrE (RRT 1) peak area” value ([2]; in methanol, stirred overnight) was 95.40% and the “IMP 1 (RRT 0.62) peak area” value ([2]; in methanol, stirred overnight) was 0.03%. The “IMP 2 (RRT 0.64) peak area” value ([2]; in methanol, stirred overnight) was 0.24%, the “IMP 3 (RRT 0.69) peak area” value ([2]; in methanol, stirred overnight) was 0.45% and the “IMP 4 (RRT 0.91) peak area” value ([2]; in methanol, stirred overnight) was 1.16%. For the same compound, the “IMP 5 (RRT 1.03) peak area” value ([2]; in methanol, stirred overnight) was 0.13%, the “IMP 6 (RRT 1.1) peak area” value ([2]; in methanol, stirred overnight) was 1.34% and the “IMP 7 (RRT 1.75) peak area” value ([2]; in methanol, stirred overnight) was 0.31%. The “HETrE (RRT 1) peak area” value [2, 12] was 95.67%, the “IMP 1 (RRT 0.62) peak area” value [2, 12] was 0.20% and the “IMP 2 (RRT 0.64) peak area” value [2, 12] was 0.12%. For the same compound, the “IMP 3 (RRT 0.69) peak area” value [2, 12] was 0.27%, the “IMP 4 (RRT 0.91) peak area” value [2, 12] was 1.30% and the “IMP 5 (RRT 1.03) peak area” value [2, 12] was 0%. For the same compound, the “IMP 6 (RRT 1.1) peak area” value [2, 12] was 1.44%, the “IMP 7 (RRT 1.75) peak area” value [2, 12] was 0.55% and the “8 Day Stability 40/75% RH” value [3] was 97% purity. The Chemical stability [4] was “chemically stable”, the “Hygroscopicity according to the European Pharmacopeia classification” value [5] was “hygroscopic” and the DVS behaviour ([5]; above 80% RH) was “deliquesced”. For the same compound, the DVS weight gain ([5]; below 70% RH) was “less than 1%”, the “DVS additional weight gain” value ([5]; between 70-80% RH) was 1% and the solubility ([6]; DMSO) was “insoluble”. The solubility ([6]; chloroform) was “insoluble”, the solubility ([6]; water) was “dissolves readily” and the “HETrE (RRT 1) in impurity profile” value [7, 13] was 95.69. For the same compound, the “IMP 1 (RRT 0.62) in impurity profile” value [7, 13] was 0.16, the “IMP 2 (RRT 0.64) in impurity profile” value [7, 13] was 0.39 and the “IMP 3 (RRT 0.69) in impurity profile” value [7, 13] was 0.16. For the same compound, the “IMP 4 (RRT 0.91) in impurity profile” value [7, 13] was 1.08, the “IMP 5 (RRT 1.03) in impurity profile” value [7, 13] was 0.07 and the “IMP 6 (RRT 1.1) in impurity profile” value [7, 13] was 1.47. For the same compound, the “IMP 7 (RRT 1.75) in impurity profile” value [7, 13] was 0.11, the “HETrE (RRT 1) in impurity profile” value ([7]; before reslurry) was 96.66 and the “IMP 1 (RRT 0.62) in impurity profile” value ([7]; before reslurry) was 0.04. For the same compound, the “IMP 2 (RRT 0.64) in impurity profile” value ([7]; before reslurry) was 0.09, the “IMP 3 (RRT 0.69) in impurity profile” value ([7]; before reslurry) was 0.11 and the “IMP 4 (RRT 0.91) in impurity profile” value ([7]; before reslurry) was 1.01. The “IMP 5 (RRT 1.03) in impurity profile” value ([7]; before reslurry) was 0.15, the “IMP 6 (RRT 1.1) in impurity profile” value ([7]; before reslurry) was 1.39 and the “IMP 7 (RRT 1.75) in impurity profile” value ([7]; before reslurry) was 0.26. For the same compound, the “Change in 15-(S)-HETrE-to-lysine ratio after reslurry” value ([7]; ethyl acetate, overnight, room temperature, NMR) was “no change”.
For `C1CNCCN1.CCCCCC(O)/C=C/C=C\C/C=C\CCCCCCC(=O)O` (stereo not shown) [15-HETrE piperazine salt, 15-Hydroxy-eicosa-8(Z),11(Z),13(E)-trienoic acid piperazine salt], the “Behaviour on exposure to air” value [8] was “appears to flow on exposure to air at ambient temperature”.
For `CCCCCC(O)/C=C/C=C\C/C=C\CCCCCCC(=O)[O-].[Na+]` (stereo not shown) [15-HETrE sodium salt, 15-Hydroxy-eicosa-8(Z),11(Z),13(E)-trienoic acid sodium salt], the “8 Day Stability 40/75% RH” value [3] was 95% purity, the “Hygroscopicity according to the European Pharmacopeia classification” value [5] was “very hygroscopic” and the DVS weight gain ([5]; below 40% RH) was “less than 1%”. The DVS behaviour ([5]; high RH) was “deliquesced” and the solubility ([6]; water used in the slurry preparation, salt did not precipitate) was “highly soluble”.
With `CCCCCC(O)/C=C/C=C\C/C=C\CCCCCCC(=O)O` (stereo not shown) [15-HETrE, 15-Hydroxy-eicosa-8(Z),11(Z),13(E)-trienoic acid] the Storage stability ([1]; stored up to 24 weeks at −20° C., 2-8° C., 25° C.) was “unstable and degrades at all conditions with the exception of −20 °C”, the “Stability when combined with HFIPA” value ([9]; 1,1,1,3,3,3-hexafluoroisopropyl acrylate (HFIPA), believed to be degradation) was “rapid color change from clear, colorless to blood red to deep purple/black” and the solubility ([9]; Acetone) was 3120 to 9360 µg/mL (≈ 9.67 to 29 mM). For the same compound, the solubility ([9]; Acetonitrile (ACN)) was 930 to 2780 µg/mL (≈ 2.88 to 8.62 mM), the solubility ([9]; DCM) was 1170 to 3520 µg/mL (≈ 3.63 to 10.9 mM) and the solubility ([9]; DMF) was 1230 to 3680 µg/mL (≈ 3.81 to 11.4 mM). For the same compound, the solubility ([9]; Dioxane) was 1660 to 4980 µg/mL (≈ 5.15 to 15.4 mM), the solubility ([9]; Ethanol (EtOH)) was 1260 to 3780 µg/mL (≈ 3.91 to 11.7 mM) and the solubility ([9]; Ethyl acetate (EtOAc)) was 1890 to 5660 µg/mL (≈ 5.86 to 17.6 mM). The solubility ([9]; Methanol (MeOH)) was 2120 to 6360 µg/mL (≈ 6.57 to 19.7 mM), the solubility ([9]; THF) was 3320 to 9960 µg/mL (≈ 10.3 to 30.9 mM) and the Miscibility in solvents ([9]; ten solvents tested) was “miscible in all solvents tested”. For the same compound, the “HETrE (RRT 1) peak area” value [10, 14] was 91.38%, the “IMP 1 (RRT 0.62) peak area” value [10, 14] was 0.12% and the “IMP 2 (RRT 0.64) peak area” value [10, 14] was 0.51%. For the same compound, the “IMP 3 (RRT 0.66) peak area” value [10, 14] was 0.89%, the “IMP 4 (RRT 0.69) peak area” value [10, 14] was 0.13% and the “IMP 5 (RRT 0.72) peak area” value [10, 14] was 1.29%. For the same compound, the “IMP 6 (RRT 0.85) peak area” value [10, 14] was 0.16%, the “IMP 7 (RRT 0.91) peak area” value [10, 14] was 1.17% and the “IMP 8 (RRT 0.98) peak area” value [10, 14] was 0.29%. For the same compound, the “IMP 9 (RRT 1.03) peak area” value [10, 14] was 0.18%, the “IMP 10 (RRT 1.1) peak area” value [10, 14] was 1.41% and the “IMP 11 (RRT 1.75) peak area” value [10, 14] was 0.88%. The “HETrE (RRT 1) peak area” value [10, 15] was 85.56%, the “IMP 1 (RRT 0.62) peak area” value [10, 15] was 0.22% and the “IMP 2 (RRT 0.64) peak area” value [10, 15] was 1.48%. The “IMP 3 (RRT 0.66) peak area” value [10, 15] was 1.47%, the “IMP 4 (RRT 0.69) peak area” value [10, 15] was 0.19% and the “IMP 5 (RRT 0.72) peak area” value [10, 15] was 3.02%. The “IMP 6 (RRT 0.85) peak area” value [10, 15] was 0.43%, the “IMP 7 (RRT 0.91) peak area” value [10, 15] was 1.56% and the “IMP 8 (RRT 0.98) peak area” value [10, 15] was 0.62%. The “IMP 9 (RRT 1.03) peak area” value [10, 15] was 0.28%, the “IMP 10 (RRT 1.1) peak area” value [10, 15] was 1.79% and the “IMP 11 (RRT 1.75) peak area” value [10, 15] was 1.14%.
